In PMC13088243, “Quantifying Protein Homodimer Affinities and the Effect of Molecular Glues and Interface Residues Using Native Mass Spectrometry” (Journal of the American Chemical Society, 2026):
Several values for one entry are separate records, joined by “and”; a condition that tells them apart may be missing. Identical values can stand only once. Like-named read-outs stand apart in the source and are kept apart here.

T1: Tpx WT (Trypanosoma brucei brucei, UniProt O77404)
T1 sequence (O77404 1-144): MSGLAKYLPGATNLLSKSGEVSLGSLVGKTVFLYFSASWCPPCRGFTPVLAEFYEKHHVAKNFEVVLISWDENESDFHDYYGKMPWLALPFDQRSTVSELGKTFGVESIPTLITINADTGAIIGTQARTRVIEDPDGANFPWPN

B1: Tryparedoxin (protein)
chain: T1 sequence (O77404 1-144)
modifications: ortho-CFT covalently bound to C40
B2: Tryparedoxin (protein)
chain: T1 sequence (O77404 1-144)
modifications: CtFT covalently bound to C40
B3: Tryparedoxin (protein)
chain: T1 sequence (O77404 1-144)
B4: Tryparedoxin (protein)
chain: T1 sequence (O77404 1-144)
modifications: meta-CFT covalently bound to C40
B5: Tryparedoxin (protein)
chain: T1 sequence (O77404 1-144)
modifications: para-CFT covalently bound to C40
B6: Tryparedoxin (protein)
chain: T1 sequence (O77404 1-144)
modifications: CPT covalently bound to C40

Legend:
Tpx WT [1] = biological target: T1, Tpx WT; parameters: method as in Schwegler et al., bioRxiv 2025; conditions: Tpx WT with molecular glue; previous dilution ITC; ref Schwegler et al., bioRxiv 2025; read-out: K D,ITC of Tpx homodimer; cited from earlier work
Tpx WT [2] = biological target: T1, Tpx WT; assay: biochemical; format: binding; conditions: for rD,LILBID @ 1100 µm / rD,solution: Tpx WT with or without molecular glue; for rD,LILBID @ 1100 µm: from linear fits of dissociation plots; for rD,solution: from rD,LILBID with calibration factor f1100
Tpx K102A = Tpx K102A (Trypanosoma brucei brucei, UniProt O77404, K102A); assay: biochemical; format: binding
Tpx K102E [3] = biological target: T2, Tpx K102E (Trypanosoma brucei brucei, UniProt O77404, K102E); assay: biochemical; format: binding
Tpx W39A = Tpx W39A (Trypanosoma brucei brucei, UniProt O77404, W39A); assay: biochemical; format: binding
Tpx K102E [4] = biological target: T2, Tpx K102E; parameters: method as in Schwegler et al., bioRxiv 2025; conditions: Tpx K102E with molecular glue; previous dilution ITC; ref Schwegler et al., bioRxiv 2025; read-out: K D,ITC of Tpx homodimer; cited from earlier work
BSA (Bos taurus) = BSA (Bos taurus) (UniProt P02769); conditions: cited from earlier work
Tryparedoxin = biological target: B3; assay: qLILBID-MS
qLILBID-MS = biological target: the molecule itself; assay: qLILBID-MS

T2 sequence (O77404 whole entry K102E): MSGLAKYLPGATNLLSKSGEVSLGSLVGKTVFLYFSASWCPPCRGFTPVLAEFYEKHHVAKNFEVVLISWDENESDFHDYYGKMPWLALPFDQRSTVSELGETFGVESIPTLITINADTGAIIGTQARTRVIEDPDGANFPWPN
Sequence of Tpx K102A (O77404 whole entry K102A): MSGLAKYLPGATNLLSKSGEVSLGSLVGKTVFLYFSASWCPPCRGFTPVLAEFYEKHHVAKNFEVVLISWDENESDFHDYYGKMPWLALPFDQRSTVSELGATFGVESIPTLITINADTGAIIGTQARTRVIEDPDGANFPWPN
Sequence of Tpx W39A (O77404 whole entry W39A): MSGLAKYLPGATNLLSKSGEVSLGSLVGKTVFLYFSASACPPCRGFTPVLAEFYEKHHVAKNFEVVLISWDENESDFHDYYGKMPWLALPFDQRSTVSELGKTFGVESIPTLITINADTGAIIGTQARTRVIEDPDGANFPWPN

| Molecule | Kd (Tpx WT [1]) [µM] | Kd (Tpx WT [2]) [µM] | rD,LILBID @ 1100 µm (Tpx WT [2]) | rD,solution (Tpx WT [2]) | Kd (Tryparedoxin) [µM] | also measured |
| --- | --- | --- | --- | --- | --- | --- |
| O=c1[nH]c(CCl)nc2scc(-c3ccccc3)c12 [CPT] | 6 ± 2.2 | 16 ± 9 | 0.871 ± 0.033 | 0.568 ± 0.088 |  |  |
| O=c1[nH]c(CCl)nc2scc(-c3ccc(F)cc3)c12 [para-CFT, 2-(chloromethyl)-5-(4-fluorophenyl)thieno[2,3-d]pyrimidin-4(3H)-one] | 5.3 ± 1.9 | 5 ± 4 | 0.798 ± 0.048 | 0.398 ± 0.099 |  | Kd (Tpx K102A; K D,LILBID of Tpx homodimer, Tpx K102A with para-CFT or none, ew 1100 μm, triplicate): 37 µM and 36 µM; rD,LILBID @ 1100 µm (Tpx K102A; Tpx K102A with or without para-CFT): 0.914 ± 0.027; rD,solution (Tpx K102A; Tpx K102A with or without para-CFT, from rD,LILBID with f1100): 0.692 ± 0.084; Kd (Tpx K102E [3]): 70 ± 16 µM; rD,LILBID @ 1100 µm (Tpx K102E [3]; Tpx K102E with or without para-CFT): 0.942 ± 0.008; rD,solution (Tpx K102E [3]; Tpx K102E with or without para-CFT, from rD,LILBID with f1100): 0.782 ± 0.029; Kd (Tpx W39A): 300 ± 110 µM; rD,LILBID @ 1100 µm (Tpx W39A; Tpx W39A with or without para-CFT): 0.980 ± 0.006; rD,solution (Tpx W39A; Tpx W39A with or without para-CFT, from rD,LILBID with f1100): 0.921 ± 0.023; Kd (Tpx K102E [4]): 83 ± 32 µM |
| O=c1[nH]c(CCl)nc2scc(-c3cccc(F)c3)c12 [meta-CFT] | 3.7 ± 1.5 | 6 ± 5 | 0.809 ± 0.058 | 0.420 ± 0.124 |  |  |
| BSA (from UniProt P02769) |  |  |  |  |  | Kd (BSA (Bos taurus)): 10 µM |
| O=c1[nH]c(CCl)nc2scc(-c3ccc(C(F)(F)F)cc3)c12 [CtFT] | 410 ± 56 | 360 ± 110 | 0.983 ± 0.004 | 0.932 ± 0.017 |  |  |
| O=c1[nH]c(CCl)nc2scc(-c3ccccc3F)c12 [ortho-CFT] | 32 ± 7 |  | 0.897 ± 0.024 | 0.642 ± 0.072 |  |  |
| B1 |  |  |  |  | 26 |  |
| B2 |  |  |  |  | 360 |  |
| B3 |  |  |  |  |  | Kd (qLILBID-MS): > 500 µM |
| B4 |  |  |  |  | 6 |  |
| B5 |  |  |  |  | 5 |  |
| B6 |  |  |  |  | 16 |  |
